Experimental data as given in patent publication US11572398B2, “GLP-1 derivatives and uses thereof” (Novo Nordisk A/S, priority 2014, dated 2023).
Like-named read-outs stand apart in the source and are kept apart here.

Assays:
human GLP-1 receptor [1] = target: T1, human GLP-1 receptor (Homo sapiens, UniProt P43220); assay: In vitro potency: CRE luciferase reporter gene assay in BHK cells expressing the human GLP-1 receptor; format: cell-based
T1 construct: expressed in transfected cells; host or cells: BHK cells (parent line BHKTS13), clone FCW467-12A; membrane preparation
T1 sequence (P43220 24-463): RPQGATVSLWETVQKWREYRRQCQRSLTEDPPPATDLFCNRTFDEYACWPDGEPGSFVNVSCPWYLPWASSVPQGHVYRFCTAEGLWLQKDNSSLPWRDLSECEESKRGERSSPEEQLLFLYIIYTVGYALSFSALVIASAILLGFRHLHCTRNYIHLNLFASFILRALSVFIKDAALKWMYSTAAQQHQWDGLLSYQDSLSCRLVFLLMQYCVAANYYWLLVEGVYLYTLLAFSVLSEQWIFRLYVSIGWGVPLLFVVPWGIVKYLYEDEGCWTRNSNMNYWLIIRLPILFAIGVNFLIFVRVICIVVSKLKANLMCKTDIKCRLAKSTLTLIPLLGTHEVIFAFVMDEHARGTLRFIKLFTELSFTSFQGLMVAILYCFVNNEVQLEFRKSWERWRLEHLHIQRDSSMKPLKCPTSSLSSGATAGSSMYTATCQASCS
Procedure, shortened: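 Whole-cell assay in stably transfected BHK cells carrying CRE-driven firefly luciferase, 5×10^3 cells/well, in assay buffer with 2% ovalbumin and 0.2% Pluronic F-68. Compound working solutions were 0.2 μM.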

human GLP-1 receptor [2] = target: T1, human GLP-1 receptor; assay: GLP-1 receptor binding: competitive binding assay (125I-GLP-1, SPA) on isolated membranes at low and high HSA
[3] = High HSA IC50, high HSA (2.0% final assay concentration)
[4] = Low HSA IC50, low HSA (max. 0.001% final assay concentration)
[5] = whole cell reporter gene assay, BHK cells, human GLP-1 receptor, average of at least two replicates, read-out: EC50
[6] = high HSA (2.0% final assay concentration), read-out: High HSA IC50
[7] = low HSA (max. 0.001% final assay concentration), read-out: Low HSA IC50

Compound	EC50 (human GLP-1 receptor [1]) [nM]	IC50 (human GLP-1 receptor [2]; [3]) [nM]	IC50 (human GLP-1 receptor [2]; [4]) [nM]	EC50 (human GLP-1 receptor [1]; [5]) [nM]	IC50 (human GLP-1 receptor [2]; [6]) [nM]	IC50 (human GLP-1 receptor [2]; [7]) [nM]
CC[C@H](C)[C@H](NC(=O)[C@H](Cc1ccccc1)NC(=O)[C@H](CCC(=O)O)NC(=O)[C@H](CCCNC(=N)N)NC(=O)[C@H](C)NC(=O)[C@H](C)NC(=O)[C@H](CCC(N)=O)NC(=O)[C@H](CCC(=O)O)NC(=O)[C@H](CCC(=O)O)NC(=O)[C@H](CC(C)C)NC(=O)[C@H](Cc1ccc(O)cc1)NC(=O)[C@H](CO)NC(=O)[C@H](CO)NC(=O)[C@@H](NC(=O)[C@H](CC(=O)O)NC(=O)[C@H](CO)NC(=O)[C@@H](NC(=O)[C@H](Cc1ccccc1)NC(=O)[C@@H](NC(=O)CNC(=O)[C@H](CCC(=O)O)NC(=O)C(C)(C)NC(=O)[C@@H](N)Cc1c[nH]cn1)[C@@H](C)O)[C@@H](C)O)C(C)C)C(=O)N[C@@H](C)C(=O)N[C@@H](Cc1c[nH]c2ccccc12)C(=O)N[C@@H](CC(C)C)C(=O)N[C@H](C(=O)N[C@@H](CCCNC(=N)N)C(=O)NCC(=O)N[C@@H](CCCNC(=N)N)C(=O)N[C@@H](CCCCNC(=O)CN(CCCNC(=O)COCCOCCNC(=O)COCCOCCNC(=O)COCCOCCNC(=O)COCCOCCNC(=O)COCCOCCNC(=O)COCCOCCNC(=O)[C@@H](N)CCCCNC(=O)[C@@H](N)CCCCNC(=O)CCCNC(=O)CCCCCCCCCCCCCCCS(=O)(=O)O)CCCNC(=O)COCCOCCNC(=O)COCCOCCNC(=O)COCCOCCNC(=O)COCCOCCNC(=O)COCCOCCNC(=O)COCCOCCNC(=O)[C@@H](N)CCCCNC(=O)[C@@H](N)CCCCNC(=O)CCCNC(=O)CCCCCCCCCCCCCCCS(=O)(=O)O)C(=O)O)C(C)C [Example 15]	0.0056	3.4	0.05	–	–	–
CC[C@H](C)[C@H](NC(=O)[C@H](Cc1ccccc1)NC(=O)[C@H](CCC(=O)O)NC(=O)[C@H](CCCNC(=N)N)NC(=O)[C@H](C)NC(=O)[C@H](C)NC(=O)[C@H](CCC(N)=O)NC(=O)[C@H](CCC(=O)O)NC(=O)[C@H](CCC(=O)O)NC(=O)[C@H](CC(C)C)NC(=O)[C@H](Cc1ccc(O)cc1)NC(=O)[C@H](CO)NC(=O)[C@H](CO)NC(=O)[C@@H](NC(=O)[C@H](CC(=O)O)NC(=O)[C@H](CO)NC(=O)[C@@H](NC(=O)[C@H](Cc1ccccc1)NC(=O)[C@@H](NC(=O)CNC(=O)[C@H](CCC(=O)O)NC(=O)C(C)(C)NC(=O)[C@@H](N)Cc1c[nH]cn1)[C@@H](C)O)[C@@H](C)O)C(C)C)C(=O)N[C@@H](C)C(=O)N[C@@H](Cc1c[nH]c2ccccc12)C(=O)N[C@@H](CC(C)C)C(=O)N[C@H](C(=O)N[C@@H](CCCNC(=N)N)C(=O)NCC(=O)N[C@@H](CCCNC(=N)N)C(=O)N[C@@H](CCCCNC(=O)CN(CCCNC(=O)COCCOCCNC(=O)COCCOCCNC(=O)COCCOCCNC(=O)COCCOCCNC(=O)CC[C@H](NC(=O)CCCNC(=O)CCCCCCCCCCCCCCCS(=O)(=O)O)C(=O)O)CCCNC(=O)COCCOCCNC(=O)COCCOCCNC(=O)COCCOCCNC(=O)COCCOCCNC(=O)CC[C@H](NC(=O)CCCNC(=O)CCCCCCCCCCCCCCCS(=O)(=O)O)C(=O)O)C(=O)O)C(C)C [Example 16, N{Epsilon-37}-[2-[bis[3-[[2-[2-[2-[[2-[2-[2-[[2-[2-[2-[[2-[2-[2-[[(4S)-4-carboxy-4-[4-(16-sulfohexadecanoylamino)butanoylamino]butanoyl]amino]ethoxy]ethoxy]acetyl]amino]ethoxy]ethoxy]acetyl]amino]ethoxy]ethoxy]acetyl]amino]ethoxy]ethoxy]acetyl]amino]propyl]amino]acetyl]-[Aib8,Glu22,Arg26,Arg34,Lys37]-GLP-1-(7-37)-peptide]	–	–	–	0.0017	3.3	0.1
CC[C@H](C)[C@H](NC(=O)[C@H](Cc1ccccc1)NC(=O)[C@H](CCC(=O)O)NC(=O)[C@H](CCCNC(=N)N)NC(=O)[C@H](C)NC(=O)[C@H](C)NC(=O)[C@H](CCC(N)=O)NC(=O)[C@H](CCC(=O)O)NC(=O)[C@H](CCC(=O)O)NC(=O)[C@H](CC(C)C)NC(=O)[C@H](Cc1ccc(O)cc1)NC(=O)[C@H](CO)NC(=O)[C@H](CO)NC(=O)[C@@H](NC(=O)[C@H](CC(=O)O)NC(=O)[C@H](CO)NC(=O)[C@@H](NC(=O)[C@H](Cc1ccccc1)NC(=O)[C@@H](NC(=O)CNC(=O)[C@H](CCC(=O)O)NC(=O)C(C)(C)NC(=O)[C@@H](N)Cc1c[nH]cn1)[C@@H](C)O)[C@@H](C)O)C(C)C)C(=O)N[C@@H](C)C(=O)N[C@@H](Cc1c[nH]c2ccccc12)C(=O)N[C@@H](CC(C)C)C(=O)N[C@H](C(=O)N[C@@H](CCCNC(=N)N)C(=O)NCC(=O)N[C@@H](CCCNC(=N)N)C(=O)N[C@@H](CCCCNC(=O)CN(CCCNC(=O)COCCOCCNC(=O)COCCOCCNC(=O)COCCOCCNC(=O)COCCOCCNC(=O)COCCOCCNC(=O)CC[C@H](NC(=O)CCCNC(=O)CCCCCCCCCCCCCCCS(=O)(=O)O)C(=O)O)CCCNC(=O)COCCOCCNC(=O)COCCOCCNC(=O)COCCOCCNC(=O)COCCOCCNC(=O)COCCOCCNC(=O)CC[C@H](NC(=O)CCCNC(=O)CCCCCCCCCCCCCCCS(=O)(=O)O)C(=O)O)C(=O)O)C(C)C [Example 17, N{Epsilon-37}-[2-[bis[3-[[2-[2-[2-[[2-[2-[2-[[2-[2-[2-[[2-[2-[2-[[2-[2-[2-[[(4S)-4-carboxy-4-[4-(16-sulfohexadecanoylamino)butanoylamino]butanoyl]amino]ethoxy]ethoxy]acetyl]amino]ethoxy]ethoxy]acetyl]amino]ethoxy]ethoxy]acetyl]amino]ethoxy]ethoxy]acetyl]amino]ethoxy]ethoxy]acetyl]amino]propyl]amino]acetyl]-[Aib8,Glu22,Arg26,Arg34,Lys37]-GLP-1-(7-37)-peptide]	–	–	–	0.0012	3.2	0.16
CC[C@H](C)[C@H](NC(=O)[C@H](Cc1ccccc1)NC(=O)[C@H](CCC(=O)O)NC(=O)[C@H](CCCNC(=N)N)NC(=O)[C@H](C)NC(=O)[C@H](C)NC(=O)[C@H](CCC(N)=O)NC(=O)[C@H](CCC(=O)O)NC(=O)[C@H](CCC(=O)O)NC(=O)[C@H](CC(C)C)NC(=O)[C@H](Cc1ccc(O)cc1)NC(=O)[C@H](CO)NC(=O)[C@H](CO)NC(=O)[C@@H](NC(=O)[C@H](CC(=O)O)NC(=O)[C@H](CO)NC(=O)[C@@H](NC(=O)[C@H](Cc1ccccc1)NC(=O)[C@@H](NC(=O)CNC(=O)[C@H](CCC(=O)O)NC(=O)C(C)(C)NC(=O)[C@@H](N)Cc1c[nH]cn1)[C@@H](C)O)[C@@H](C)O)C(C)C)C(=O)N[C@@H](C)C(=O)N[C@@H](Cc1c[nH]c2ccccc12)C(=O)N[C@@H](CC(C)C)C(=O)N[C@H](C(=O)N[C@@H](CCCNC(=N)N)C(=O)NCC(=O)N[C@@H](CCCNC(=N)N)C(=O)N[C@@H](CCCCNC(=O)COCCOCCNC(=O)COCCOCCNC(=O)COCCOCCNC(=O)COCCOCCNC(=O)COCCOCCNC(=O)COCCOCCNC(=O)CN(CCCNC(=O)[C@H](CO)NC(=O)CC[C@H](NC(=O)[C@H]1CC[C@H](CNC(=O)CCCCCCCCCCCCCCCCCCC(=O)O)CC1)C(=O)O)CCCNC(=O)[C@H](CO)NC(=O)CC[C@H](NC(=O)[C@H]1CC[C@H](CNC(=O)CCCCCCCCCCCCCCCCCCC(=O)O)CC1)C(=O)O)C(=O)O)C(C)C [Example 25]	–	–	0.91	0.03	41	–
CC[C@H](C)[C@H](NC(=O)[C@H](Cc1ccccc1)NC(=O)[C@H](CCC(=O)O)NC(=O)[C@H](CCCNC(=N)N)NC(=O)[C@H](C)NC(=O)[C@H](C)NC(=O)[C@H](CCC(N)=O)NC(=O)[C@H](CCC(=O)O)NC(=O)[C@H](CCC(=O)O)NC(=O)[C@H](CC(C)C)NC(=O)[C@H](Cc1ccc(O)cc1)NC(=O)[C@H](CO)NC(=O)[C@H](CO)NC(=O)[C@@H](NC(=O)[C@H](CC(=O)O)NC(=O)[C@H](CO)NC(=O)[C@@H](NC(=O)[C@H](Cc1ccccc1)NC(=O)[C@@H](NC(=O)CNC(=O)[C@H](CCC(=O)O)NC(=O)C(C)(C)NC(=O)[C@@H](N)Cc1c[nH]cn1)[C@@H](C)O)[C@@H](C)O)C(C)C)C(=O)N[C@@H](C)C(=O)N[C@@H](Cc1c[nH]c2ccccc12)C(=O)N[C@@H](CC(C)C)C(=O)N[C@H](C(=O)N[C@@H](CCCNC(=N)N)C(=O)NCC(=O)N[C@@H](CCCNC(=N)N)C(=O)N[C@@H](CCCCNC(=O)CN(CCCNC(=O)COCCOCCNC(=O)COCCOCCNC(=O)COCCOCCNC(=O)COCCOCCNC(=O)COCCOCCNC(=O)COCCOCCNC(=O)CC[C@H](NC(=O)CCCNC(=O)CCCCCCCCCCCCCCCS(=O)(=O)O)C(=O)O)CCCNC(=O)COCCOCCNC(=O)COCCOCCNC(=O)COCCOCCNC(=O)COCCOCCNC(=O)COCCOCCNC(=O)COCCOCCNC(=O)CC[C@H](NC(=O)CCCNC(=O)CCCCCCCCCCCCCCCS(=O)(=O)O)C(=O)O)C(=O)O)C(C)C [Example 18, N{Epsilon-37}-[2-[bis[3-[[2-[2-[2-[[2-[2-[2-[[2-[2-[2-[[2-[2-[2-[[2-[2-[2-[[2-[2-[2-[[(4S)-4-carboxy-4-[4-(16-sulfohexadecanoylamino)butanoylamino]butanoyl]amino]ethoxy]ethoxy]acetyl]amino]ethoxy]ethoxy]acetyl]amino]ethoxy]ethoxy]acetyl]amino]ethoxy]ethoxy]acetyl]amino]ethoxy]ethoxy]acetyl]amino]ethoxy]ethoxy]acetyl]amino]propyl]amino]acetyl]-[Aib8,Glu22,Arg26,Arg34,Lys37]-GLP-1-(7-37)-peptide]	0.0013	5.7	0.18	–	–	–
